How the values were obtained:
Kuramochi cells = assay: BrdU Cell Proliferation Assay; type: cell-based; settings: read-out: BrdU - KURAMOCHI.1: IC50
Summary of the method: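 Kuramochi cells were seeded at 2,000 cells/well, adhered overnight, then treated with a 10-point, 3-fold compound dilution series for 4 days. Proliferation was measured by a 1-hour BrdU pulse, anti-BrdU peroxidase colorimetric ELISA and 450 nm absorbance. Values were background-subtracted and normalized to DMSO wells.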

[1] = test system: Kuramochi cells labeled with mApple-H2B; assay: IncuCyte Cell Proliferation Assay; type: cell-based
Summary of the method: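 Cells imaged at 0 and 72 h after compound treatment (10 points, ½ log dilution, 20 μM top), with fluorescent nuclei counted. Fold change in count was normalized to DMSO wells and fitted to dose-response curves to give GI50.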

Structure (SMILES)	IC50 (Kuramochi cells)	IC50 ([1]; 72 h)	IC50 ([1]; 72 hours)
CC1(C)C[C@@H]1C(=O)N1CC2(CN(C(=O)c3cnn(Cc4ccccc4)c3)C[C@H]2C(=O)NCc2ccc(O)nn2)C1 [I-400]	> 10 µM	> 20 µM	–
CNC(=O)[C@@H](NC(=O)[C@@H]1CN(C(=O)c2cncs2)CC12CN(C(=O)[C@H]1CC1(C)C)C2)C1(OCC2CCCCC2)CC1 [I-401]	0.5 to 5 µM	0.5 to 5 µM	–
COC[C@H]1CCCN(C(=O)[C@@H](NC(=O)[C@@H]2CN(C(=O)c3cncs3)CC23CN(C(=O)[C@H]2CC2(C)C)C3)[C@@H](C)OC[C@H]2CC[C@H](OC)CC2)C1 [I-402]	0.5 to 5 µM	0.5 to 5 µM	–
CNC(=O)[C@@H](NC(=O)[C@@H]1CN(C(=O)c2cnn(Cc3ccccc3)c2)CC12CN(C(=O)[C@H]1CC1(C)C)C2)[C@@H](C)OC[C@H]1CC[C@H](OC)CC1 [I-403]	> 10 µM	> 20 µM	–
C[C@@H](OCC1CCCCC1)[C@H](NC(=O)[C@@H]1CN(C(=O)c2cncs2)CC12CN(C(=O)[C@H]1CC1(C)C)C2)C(=O)N1CCC(c2cnc[nH]2)CC1 [I-406]	0.5 to 5 µM	0.5 to 5 µM	–
CNC(=O)C(NC(=O)[C@@H]1CN(C(=O)c2cncs2)CC12CN(C(=O)[C@H]1CC1(C)C)C2)c1cccc(N2CCOCC2)n1 (stereo partly drawn) [I-422]	> 10 µM	> 20 µM	–
CNC(=O)[C@@H](NC(=O)[C@@H]1CN(C(=O)c2cnn(Cc3ccccc3)c2)CC12CN(C(=O)[C@H]1CC1(C)C)C2)[C@@H](C)OC[C@H]1CC[C@@H](O)CC1 [I-424]	> 10 µM	> 20 µM	–
CNC(=O)C(NC(=O)[C@@H]1CN(C(=O)c2cncs2)CC12CN(C(=O)[C@H]1CC1(C)C)C2)c1nc(C2CCCCC2)co1 (stereo partly drawn) [I-425]	> 10 µM	> 20 µM	–
CNC(=O)C(NC(=O)[C@@H]1CN(C(=O)c2cncs2)CC12CN(C(=O)[C@H]1CC1(C)C)C2)c1ncc(C2CCCCC2)o1 (stereo partly drawn) [I-426]	> 10 µM	> 20 µM	–
CNC(=O)C(NC(=O)[C@@H]1CN(C(=O)c2cncs2)CC12CN(C(=O)[C@H]1CC1(C)C)C2)c1cccc(N2CC3(COC3)C2)n1 (stereo partly drawn) [I-427]	> 10 µM	> 20 µM	–
C[C@@H](OCC1CCOCC1)[C@@H](COC(F)(F)F)NC(=O)[C@@H]1CN(C(=O)c2cncs2)CC12CN(C(=O)[C@H]1CC1(C)C)C2 [I-428]	> 10 µM	> 20 µM	–
CNC(=O)C(NC(=O)[C@@H]1CN(C(=O)c2cncs2)CC12CN(C(=O)[C@H]1CC1(C)C)C2)c1cccc(N2CC3(CC(C(F)(F)F)C3)C2)n1 (stereo partly drawn) [I-430]	> 10 µM	> 20 µM	–
CNC(=O)C(NC(=O)[C@@H]1CN(C(=O)c2cncs2)CC12CN(C(=O)[C@H]1CC1(C)C)C2)c1cccc(N2CCCCC2)n1 (stereo partly drawn) [I-432]	> 10 µM	> 20 µM	–
CNC(=O)[C@@H](NC(=O)[C@@H]1CN(C(=O)c2cncs2)CC12CN(C(=O)[C@H]1CC1(C)C)C2)[C@@H](C)OCC1CC2CCC1O2 (stereo partly drawn) [I-462]	> 10 µM	> 20 µM	–
CNC(=O)[C@@H](NC(=O)[C@@H]1CN(C(=O)c2cncs2)CC12CN(C(=O)[C@H]1CC1(C)C)C2)[C@@H](C)OC1C2CC3CC(C2)CC1C3 (stereo partly drawn) [I-463]	0.5 to 5 µM	0.5 to 5 µM	–
CNC(=O)[C@@H](NC(=O)[C@@H]1CN(C(=O)c2cncs2)CC12CN(C(=O)[C@H]1CC1(C)C)C2)[C@@H](C)OC1CC2CCC1CC2 (stereo partly drawn) [I-464]	0.5 to 5 µM	0.5 to 5 µM	–
CNC(=O)[C@@H](NC(=O)[C@@H]1CN(C(=O)c2cncs2)CC12CN(C(=O)[C@H]1CC1(C)C)C2)[C@@H](C)OCC1CC2CCC1C2 (stereo partly drawn) [I-465]	0.5 to 5 µM	≤ 0.5 µM	–
COC[C@H]1CCCN(C(=O)[C@@H](NC(=O)[C@@H]2CN(C(=O)c3cncs3)CC23CN(C(=O)[C@H]2CC2(C)C)C3)[C@@H](C)O[C@H](C)C2CCCCC2)C1 [I-466]	0.5 to 5 µM	–	0.5 to 5 µM
C[C@@H](OCC1CCC(F)(F)CC1)[C@H](NC(=O)[C@@H]1CN(C(=O)c2cncs2)CC12CN(C(=O)[C@H]1CC1(C)C)C2)C(=O)N1C2CCC1COC2 [I-468]	≤ 0.5 µM	≤ 0.5 µM	–
CC1(C)C[C@@H]1C(=O)N1CC2(CN(C(=O)c3cncs3)C[C@H]2C(=O)NC(c2cccc(C3CCCCC3)n2)P(C)(C)=O)C1 (stereo partly drawn) [I-494]	> 10 µM	> 20 µM	–
CC1(C)C[C@@H]1C(=O)N1CC2(CN(C(=O)c3cncs3)C[C@H]2C(=O)NC(c2cccc(C3CCCCC3)n2)C2COCCO2)C1 (stereo partly drawn) [I-496]	> 10 µM	5 to 20 µM	–

From US12065445B2, “CDK2 inhibitors and methods of using the same” (Cedilla Therapeutics, Inc., priority 2021, dated 2024)
